# Measurements published in patent publication US6583334B1, “Ovariectomized mouse model for human menopause” (Board of Trustees operating Michigan State University, priority 2000, dated 2003).
# Values joined by “and” are separate entries in the source; they are usually repeats but may differ in a detail not shown here. Identical values can stand only once. “Also recorded” adds a separate entry of the source. Like-named read-outs stand apart in the source and are kept apart here.
# How the values were obtained:
# [1] = Serum levels of E by radioimmunoassay; type: in vivo, BALB/c female mice; conditions: female, BALB/c, mouse, 24 h after injection of 1 μg E at 5 wks post OVX, n=4, read-out: E serum level
# Method: (§1) Ten-week-old or 9-12 month-old BALB/c female mice from our own colony were bilaterally ovariectomized (OVX) under Nembutal anesthesia 1 or 5 weeks prior to E treatment. […] Injection was chosen as the method of systemic administration to optimize precision and reproducibility of hormone dosage. Serum levels of E were determined after OVX and E injection by radioimmunoassay using a commercial kit (Diagnostic Products Corp., Los Angeles, Calif.) according to the suppliers instructions. […] Therefore, in all experiments except time course studies, mammary glands were analyzed at 72 h after E treatment for DNA histoautoradiogrpahy and at 96 h after E treatment for morphological analysis.
# [2] = test system: mammary epithelial and stromal cells; assay: DNA histoautoradiography (3H-thymidine labeling index) after E in OVX mice; type: in vivo, BALB/c female mice; conditions: for maximum proliferative response, 5 wk vs 1 wk post OVX: dose response study
# Method: Ten-week-old or 9-12 month-old BALB/c female mice from our own colony were bilaterally ovariectomized (OVX) under Nembutal anesthesia 1 or 5 weeks prior to E treatment. […] Injection was chosen as the method of systemic administration to optimize precision and reproducibility of hormone dosage.
# At various times after E injection, animals received a single ip injection of [^3H]thymidine in a dosage of 2 μCi/g BW 1 h before sacrifice. The mammary glands were removed, fixed and processed as wholemounts followed by embedding and sectioning for histoautcradiographic analysis as described previously. Histological sections were examined at 400× magnification to determine the DNA labeling indices (LIs) of epithelial and stromal cells. […] In parallel, stromal cell LIs were determined for areas adjacent to and distal from duct ends. Adjacent areas were defined to be within […] of the duct end (i.e. in the same microscope field at 400× magnification) and the distal areas were defined to be more than 400 μm away from the duct end. A minimum of 10 individual structures were evaluated for each of 5-9 mice per experimental group.
# [3] = test system: progesterone receptor (PR); assay: Steroid hormone binding assay ([3H]R5020) for PR concentration after E; type: in vivo, BALB/c female mice
# Method: To determine PR concentration, cytoplasmic extracts were prepared separately for mammary gland and uteri as described previously (Haslam, S. Z., et al., Endocrinol 108:825-830 (1981)). Mammary gland and uterine cytoplasmic extracts were incubated with a single saturating concentration of 20 nM [^3H]R5020 with 100-fold excess radioinert dexamethasone (for suppression of progestin binding to glucocorticoid receptors) or with 100-fold excess radioinert R5020. Specific binding was determined using a dextran-coated charcoal assay procedure as previously described (Haslam, S. Z., et al., Endocrinol 108:825-830(1981)). Tissue DNA was quantitated as previously described (Ceriotti, G., J Biol Chem 198:297-303 (1952)).
# PR = PR immunohistochemistry/immunofluorescence after E; type: in vivo, mice
# From the text: A dissociation between E stimulation of cell proliferation and PR regulation in mouse mammary gland has previously been reported (Fendrick, J. L., et al., J Mammary Gland Biol Neoplasia 3:7-22 (1998)). Although E appears to mediate proliferation of epithelial cells indirectly via stroma, E acts directly in epithelial cells to increase PR levels (Haslam, S. Z., Endocrinol 122:860-867 (1988)). Thus, our observations of increased responsiveness to the proliferative effect, but decreased responsiveness to the PR regulatory effect of E indicate that mammary epithelial and stromal cells are affected differently by long-term OVX. To confirm this observation, we have also used immunohistochemical analysis to determine the percentage of PR positive cells and PR concentration per cell, using a fluorescein-conjugated secondary antibody detection system, similar to the ER immunofluorescence assay herein. […] Future studies are planned to determine the mechanistic basis of these different responses to OVX. A similar dissociation of estrogenic regulation of proliferation and PR level has recently been reported for normal human breast (Clark, R. B., et al., Cancer Res 57:4987-4991 (1997)). […] In contrast, since ER and PR do co-localize in the same cells, E appears to act directly to regulate PR in breast epithelial cells. […]
# [4] = test system: progesterone receptor (PR); assay: PR ligand binding assay, time course of E induction of PR; type: in vivo, BALB/c virgin mice; conditions: for increase in PR levels: single injection of E
# Method: Hormone- or control-treated mammary glands were analyzed for progesterone receptor (PR) levels using a dextran-coated charcoal ligand binding assay (Haslam, S. G., Endocrinology 195:789-795 (1979)). Tissue DNA was quantitated as previously described (Ceriotti, G., J Biol Chem 198:297-303 (1952)).
# [5] = test system: MCF-7 human breast carcinoma cell line; conditions: cited from earlier work
# mammary gland = assay: Mammary gland wholemount morphology after E in OVX mice; type: in vivo, BALB/c female mice
# Method: as §1
# mammary gland duct ends = assay: Elvax implants of RU486 or ICI 182,780: duct end enlargement in E+P injected OVX mice; type: in vivo, BALB/c virgin mice; conditions: for reduction of number of enlarged duct ends induced by E+P: implant vs control implant; for number of enlarged duct ends (mean ± S.E.M.) per implanted mammary gland: 3 days E + P
# Method: Ten-week old BALB/c virgin mice from our own colony were bilaterally ovariectomized 1 or 5 weeks (wks) before hormone treatment. All mice received sc daily injections of 1 μg 17b-estradiol (E)+1 mg progesterone (P) as a suspension in 0.04% gum arabic in 0.85% NaCl; control groups received vehicle only. The E+P dosage was determined from previous studies on mouse mammary gland (Magnusson, C., et al., Int J Cancer 81:339-344 (1999); and Beral V., et al., Lancet 350:1047-1059 (1997)) on the basis that it produced modest sidebranching and alveolar bud development ([…]., Endocrinology 122:464-470 (1998)), and resembled the normal breast tissue of postmenopausal women who had received […]., et al., J Clin Endocrinol Metab 84:4559-4565 (1999)). […] The effects of the implants on the mammary gland were quantified morphometrically by capturing a digitized microscopic image of the mammary gland wholemount at 10× magnification using NIH/Image One software. The numbers and size of duct ends were measured within a 2 cm radius of the implant. Duct ends were considered to be enlarged if they were 1.0 mm or greater in diameter at the 10× magnification.
# [6] = 24 hr after E injection, 5 wk post OVX
smiles,measurement,setting,value
"C[C@]12CC[C@@H]3c4ccc(O)cc4CC[C@H]3[C@@H]1CC[C@@H]2O [E, 17β-estradiol]",concentration at 24 h,[1],0.031 ± 0.0078 ng/mL
same,"stimulation of DNA synthesis in stromal cells adjacent to duct ends, 5 wk vs 1 wk post OVX","[2]; 1 μg E, 72 h",4 fold
same,ED 50 of E-induced proliferation,[2]; 1 vs 5 wk post OVX,identical
same,DNA synthesis in ducts,"[2]; E-treated, 1 and 5 wk post OVX",little or no DNA synthesis
same,"maximal epithelial proliferative response, 5 wk vs 1 wk post OVX",[2]; after 3 days of daily sc E injection,2.6 fold
same,increased proliferative response in mammary stromal cells,[2]; after long-term OVX (discussion),3 fold
same,"E-induced stimulation of DNA synthesis in duct ends, 5 wk vs 1 wk post OVX","[2]; duct end epithelium, 1 μg E, 72 h",6.5 fold
same,"maximum proliferative response, 5 wk vs 1 wk post OVX","[2]; epithelial cells, 72 h",5.6 fold
same,"steady state stromal cell proliferation, 5 wk vs 1 wk post OVX",[2]; long-term daily E treatment,2 fold
same,"steady state epithelial proliferation, 5 wk vs 1 wk post OVX",[2]; long-term daily E treatment up to 28 days,2 fold and 2.3 fold
same,time of maximal DNA synthesis / proliferative response after E injection,[2]; mammary epithelial and stromal cells,72 h
same,"maximum proliferative response, 5 wk vs 1 wk post OVX","[2]; stromal cells, 72 h",2.5 fold
same,increase in PR in mammary gland,"[3]; 12, 24 and 36 h after E injection, 5 wk post OVX",No increase
same,increase in PR binding in mammary gland,"[3]; 24 hr after E injection, 1 wk post OVX",2.5 fold
same,increase in PR binding in mammary gland,[3]; [6],failed to increase; also recorded: no significant increase
same,increase in PR in uteri,[3]; [6],8 fold
same,increase in PR concentration per cell,PR; 1 wk post OVX E-treated mammary glands,2 fold
same,numbers of PR positive cells or amount of PR per cell,PR; 5 wk post OVX E-treated glands,no significant increase
same,number of daily E injections until PR levels increased above control,[4]; 5 wk post OVX,7 daily E injections
same,increase in PR levels,[4]; 1 wk post OVX,2.5 fold and 2 fold
same,increase in PR levels,[4]; 5 wk post OVX,failed to increase PR levels
same,dose for maximal proliferative response,[5]; MCF-7 cells deprived of estrogen for 1-6 months,10^−14 M
same,dose for maximal proliferative response,"[5]; MCF-7 cells, not estrogen-deprived",10^−10 M
same,percentage of mammary glands exhibiting stimulation of duct ends,"mammary gland; 5 wk post OVX, after E treatment (single ip 1 μg, 4 days later)",100%
same,extent of stimulatory response to E as a function of time after ovariectomy,"mammary gland; 9-12 month old mice, OVX 1, 3 or 5 weeks prior to E",identical to that obtained in 10-week-old mice
same,effect on mammary gland morphology,mammary gland; E treatment at 1 wk post OVX,no effect on morphology
same,effect on mammary gland morphology,mammary gland; E treatment at 5 wk post OVX (late postmenopausal),pronounced enlargement of duct ends; also recorded: produced enlarged duct ends
same,time of maximal morphological response after E injection,"mammary gland; mouse, in vivo",96 h
same,morphological and DNA synthesis results,mammary gland; ovariectomized plus adrenalectomized mice,identical to those obtained with ovariectomy alone
"C[C@]12CC[C@@H]3c4ccc(O)cc4C[C@@H](CCCCCCCCC[S+]([O-])CCCC(F)(F)C(F)(F)F)[C@H]3[C@@H]1CC[C@@H]2O (stereo partly shown) [ICI 182,780]",reduction of number of enlarged duct ends induced by E+P,mammary gland duct ends; 5 wk post OVX,8 fold
same,number of enlarged duct ends (mean ± S.E.M.) per implanted mammary gland,"mammary gland duct ends; late postmenopause (5 wk post OVX), 0.1 μg ICI 182,780 implant, n = 8",1.0 ± 1.0
CC#C[C@]1(O)CC[C@H]2[C@@H]3CCC4=CC(=O)CCC4=C3[C@@H](c3ccc(N(C)C)cc3)C[C@@]21C [RU486],reduction of number of enlarged duct ends induced by E+P,mammary gland duct ends; 1 wk post OVX,9 fold
same,number of enlarged duct ends (mean ± S.E.M.) per implanted mammary gland,"mammary gland duct ends; early postmenopause (1 wk post OVX), 0.1 μg RU486 implant",0.75 ± 0.25
same,number of enlarged duct ends (mean ± S.E.M.) per implanted mammary gland,"mammary gland duct ends; late postmenopause (5 wk post OVX), 0.1 μg RU486 implant",9.0 ± 1.0
